The record followed here is patent US20090062223A1, “AMINO TRICYCLIC-NUCLEOSIDE COMPOUNDS, COMPOSITIONS, AND METHODS OF USE” (GENELABS TECHNOLOGIES, INC., priority 2007, published 2009).

Series [1] is described as follows: Solubility (shaking flask). It counts as physicochemical. To be noted: phosphate buffer solution (PBS), aqueous buffer, thermodynamic from solid; PBS; 37° C. for 24 hours. The method, then: The solubility for certain compounds were determined using the following protocol and procedure. 1) The solution, sterile water or phosphate buffer solution (PBS), was added to the test compound tube to make the final concentration 10 mg/mL. 2) The sample tube was vortexed and incubated at 37° C. for 24 hours. During the incubation period, the sample tube was vortexed several times. 3) After the incubation, vortex the tube and centrifuge the tube at 13,000 rpm for 10 mins using an Eppendorf Centrifuge Model 5415C. If the solution was still cloudy, centrifuge it for longer until a clear supernatant was achieved. 4) The supernatant was diluted to 1×, 10× and 100× in 50% ACN in water. 5) A six point standard curve was prepared separately to make the final concentrations of 1 μg/mL, 5 μg/mL, 10 μg/mL, 20 μg/mL, 40 μg/mL and 60 μg/mL. 6) Samples were quantified using an HPLC with UV detector. 7) From the three concentrations of 1×, 10× and 100× supernatant, choose the value, which was fallen into the standard curve range (1 ug/mL-60 ug/mL), as the final result. If all the results were out of the curve range, adjust using a dilution factor to make the value within the curve range.

The next series can be described thus: in vitro. Type of series: in vitro ADME. The conditions noted are these: human, Caco-2. The protocol:
Caco-2 cells were maintained in Dulbecco's Modification of Eagle's Medium (DMEM) with sodium pyruvate, Glutmax supplemented with 1% Pen/Strep, 1% NEAA and 10% fetal bovine serum in an incubator set at 37° C., 90% humidity and 5% CO2. Caco-2 cells between passage 43 and 61 were grown to confluence over at least 21-days on 24 well PET (polyethylene-terephthalate) plates (BD Biosciences). Experiments were run using a new HBSS donor buffer from Invitrogen containing additional 10 mM HEPES, 15 mM Glucose with pH adjusted to pH 6.5. The receiver well used HBSS buffer supplemented with 1% BSA and the pH adjusted to pH 7.4. After an initial equilibration with transport buffer, TEER values were read to test membrane integrity. The experiment was started by the addition of buffers containing test compounds and 100 μl of solution is taken at 1 and 2 hrs from the receiver compartment. Removed buffer was replaced with fresh buffer and a correction was applied to all calculations for the removed material. Each compound was tested in 2 separate replicate wells for each condition. All samples were immediately collected into 400 μl 100% acetonitrile acid to precipitate protein and stabilize test compounds. Cells were dosed on the apical or basolateral side to determine forward (A to B) and reverse (B to A) permeability. Permeability through a cell free trans-well was also determined as a measure of cellular permeability through the membrane and non-specific binding. To test for non-specific binding and compound instability the total amount of drug was quantitated at the end of the experiment and compared to the material present in the original dosing solution as a percent recovery. Samples were analyzed by LC/MS/MS.
The apparent permeability, Papp, and % recovery were calculated as follows: […]
where, • dR/dt is the slope of the cumulative concentration in the receiver compartment versus time in μM/s based on receiver concentrations measured at 60 and 120 minute. • Vr and Vd is the volume in the receiver and donor compartment in cm^3, respectively. • A is the area of the cell monolayer (0.33 cm^2). • D0 and D120 is the measured donor concentration at the beginning and end of the experiment, respectively. • R120 is the receiver concentration at the end of the experiment (120 minutes).
The apparent permeability for certain compounds were determined using the above procedure.

Values after ≈ are worked out from the molar mass of the structure shown. Some results are limits rather than exact numbers.

In general, solubility refers to the concentration that dissolves in the medium under given conditions. Read a high solubility as a readily soluble substance. What is called Papp A→B is how fast a substance crosses the layer from the apical side. Low values mean poor permeation, high ones ready permeation. In series [1], `CC(=O)OC[C@H]1O[C@@H](n2cc3c4c(ncnc42)NC(=O)C=C3N)C(C)(OC(C)=O)[C@@H]1OC(C)=O` (stereo in doubt) [Compound 117, Acetic acid 4-acetoxy-2-acetoxymethyl-5-(9-amino-7-oxo-6,7-dihydro-2,3,5,6-tetraaza-benzo[cd]azulen-2-yl)-4-methyl-tetrahydro-furan-3-yl ester] showed a solubility at 24 h of 510 µg/mL (≈ 1080 µM). Besides, the Papp A→B at 2 h in the series “in vitro” is > 1 ×10⁻⁶ cm/s.
